Measured values taken from patent US20080221060A1, “Therapeutic Compounds” (priority 2004, published 2008).
Values joined by “and” are separate entries in the source; they are usually repeats but may differ in a detail not shown here. Identical values can stand only once. Like-named read-outs stand apart in the source and are kept apart here.

Columns and labels:
[1] = tested on: carrageenan (CGN) induced inflammation; assay: carrageenan induced paw inflammation (plethysmometry); format: in vivo; conditions: rat, 62.4 and 624 μg/kg i.p.; indomethacin 3 mg/kg po as comparator
Method: Carrageenan (2%, 10 microlitres) was administered into the right hind paw of a rat, and the paw volume assessed by plethysomometry. Spongosine was administered at the same time as carrageenan.

[2] = 20 mg/kg po; cited from earlier work
[3] = tachycardia by 12 lead ECGs in human volunteers; format: in vivo
Method: Tachycardia was determined using 12 lead ECGs.

adenosine A1 receptor = target: T1, adenosine A1 receptor (Cavia porcellus, UniProt P47745); conditions: guinea pig; read-out: EC50, adenosine A1 receptor, isolated heart preparation; cited from earlier work
T1 construct: host or cells: guinea pig isolated heart
T1 sequence (P47745 1-326): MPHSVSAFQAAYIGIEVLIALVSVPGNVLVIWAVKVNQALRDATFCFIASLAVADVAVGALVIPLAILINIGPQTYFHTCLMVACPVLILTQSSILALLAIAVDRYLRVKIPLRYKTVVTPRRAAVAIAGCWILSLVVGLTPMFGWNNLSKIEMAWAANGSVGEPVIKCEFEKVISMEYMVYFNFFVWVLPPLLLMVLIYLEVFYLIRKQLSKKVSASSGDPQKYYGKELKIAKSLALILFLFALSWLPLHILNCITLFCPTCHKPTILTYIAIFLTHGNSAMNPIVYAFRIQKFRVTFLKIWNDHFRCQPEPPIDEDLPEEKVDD

[4] = target: T2, rat adenosine A1 receptor (Rattus norvegicus, UniProt P25099); conditions: cited from earlier work
T2 sequence (P25099 1-326): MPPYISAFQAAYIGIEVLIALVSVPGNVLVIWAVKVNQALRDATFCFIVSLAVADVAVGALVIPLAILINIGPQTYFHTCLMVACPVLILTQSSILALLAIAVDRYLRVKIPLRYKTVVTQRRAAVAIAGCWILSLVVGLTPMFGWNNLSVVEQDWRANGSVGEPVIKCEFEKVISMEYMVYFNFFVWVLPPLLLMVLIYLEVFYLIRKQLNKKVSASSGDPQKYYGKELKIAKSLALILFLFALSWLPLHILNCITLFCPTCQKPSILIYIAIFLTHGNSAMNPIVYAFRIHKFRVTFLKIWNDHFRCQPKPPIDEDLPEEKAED

[5] = tested on: carrageenan (CGN) induced thermal hyperalgesia; assay: carrageenan induced thermal hyperalgesia (CITH); format: in vivo; conditions: 0.624 mg/kg p.o.; indomethacin 3 mg/kg po as comparator
Method: A. […] Carrageenan (2%, 10 microlitres) was administered into the right hind paw. A heat source was placed close to the treated and untreated hind paws, and the difference in the paw withdrawal latencies is shown. Spongosine was administered at the same time as carrageenan.

[6] = plasma concentrations after single oral dosing in human volunteers; format: in vivo
adenosine receptors = adenosine receptors (Rattus norvegicus, UniProt P30543); assay: EC50 at adenosine receptors measured at pH 7.4; format: biochemical; conditions: measured at pH7.4
Sequence of adenosine receptors (P30543 whole entry): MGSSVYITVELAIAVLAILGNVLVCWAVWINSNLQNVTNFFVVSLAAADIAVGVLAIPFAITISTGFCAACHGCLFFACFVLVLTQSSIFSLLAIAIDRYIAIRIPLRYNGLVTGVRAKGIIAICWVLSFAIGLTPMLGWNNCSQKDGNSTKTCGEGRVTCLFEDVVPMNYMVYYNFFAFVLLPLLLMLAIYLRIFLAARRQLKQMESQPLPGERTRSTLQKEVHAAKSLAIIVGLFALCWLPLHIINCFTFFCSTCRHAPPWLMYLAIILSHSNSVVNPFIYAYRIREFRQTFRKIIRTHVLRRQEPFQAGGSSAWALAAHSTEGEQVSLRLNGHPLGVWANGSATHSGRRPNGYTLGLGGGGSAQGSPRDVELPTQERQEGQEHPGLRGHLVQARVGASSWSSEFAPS
From the text: (§1) For the avoidance of doubt, the EC50 value of a compound is defined herein as the concentration of the compound that provokes a receptor response halfway between the baseline receptor response and the maximum receptor response (as determined, for example, using a dose-response curve).
(§2) The EC50 value should be determined under standard conditions (balanced salt solutions buffered to pH 7.4). For EC50 determinations using isolated membranes, cells and tissues this would be in buffered salt solution at pH 7.4 (e.g. cell culture medium), for example as in Daly et al, Pharmacol. (1993) 46, 91-100), or preferably as in Tilburg et al (J. Med. Chem. (2002) 45, 91-100). The EC50 could also be determined in vivo by measuring adenosine receptor mediated responses in a normal healthy animal, or even in a tissue perfused under normal conditions (i.e. oxygenated blood, or oxygenated isotonic media, also buffered at pH 7.4) in a normal healthy animal.

rat A2A receptor = rat A2A receptor (Rattus norvegicus, UniProt P30543); conditions: read-out: EC50 for stimulation of the rat A2A receptor; cited from earlier work
Sequence of rat A2A receptor (P30543 whole entry): as above

[7] = blood pressure and heart rate in rats (radiotelemetry); format: in vivo, rat
From the text: An implantable radiotelemetry device was placed in the abdominal cavity of 6 rats per group. The pressure catheter of the device was inserted in the abdominal aorta and two electrodes tunnelised under the skin in a lead II position (left side of abdominal cavity/right shoulder). Individual rats were placed in their own cage on a radioreceptor (DSI) for data acquisition. A: blood pressure; B: heart rate.

[8] = tested on: chronic constriction injury model of neuropathic pain; assay: static allodynia, chronic constriction injury of the rat sciatic nerve; format: in vivo; conditions: rat CCI
From the text: The total dose administered is shown on the horizontal axis, and the paw withdrawal threshold (PWT) on the vertical axis.

[9] = tested on: chronic constriction injury model of neuropathic pain; assay: thermal hyperalgesia, chronic constriction injury of the rat sciatic nerve; format: in vivo; conditions: rat CCI, 0.624 mg/kg p.o.
From the text: After approximately two weeks the rats developed thermal hyperalgesia in the operated leg as judged by the difference in paw withdrawal latencies of the right and left paws.

adenosine A2A receptor [10] = target: T3, adenosine A2A receptor (Cavia porcellus, UniProt P46616); conditions: guinea pig; read-out: EC50, adenosine A2A receptor, isolated heart preparation; cited from earlier work
T3 construct: host or cells: guinea pig isolated heart
T3 sequence (P46616 whole entry): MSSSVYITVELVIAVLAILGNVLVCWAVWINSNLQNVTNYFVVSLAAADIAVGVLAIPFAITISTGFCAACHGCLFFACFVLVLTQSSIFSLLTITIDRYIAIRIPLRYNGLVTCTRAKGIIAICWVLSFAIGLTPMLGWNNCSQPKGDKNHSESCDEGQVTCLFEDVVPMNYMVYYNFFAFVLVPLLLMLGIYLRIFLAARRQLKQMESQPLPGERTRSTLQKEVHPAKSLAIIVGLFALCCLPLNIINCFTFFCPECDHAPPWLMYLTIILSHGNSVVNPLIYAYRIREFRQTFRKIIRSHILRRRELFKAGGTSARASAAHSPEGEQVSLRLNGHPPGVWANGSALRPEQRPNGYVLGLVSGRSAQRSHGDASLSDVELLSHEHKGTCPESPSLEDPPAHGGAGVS

adenosine A2A receptor [11] = target: adenosine A2A receptor (UniProt P30543); assay: EC50 at the adenosine A2A receptor; format: biochemical
From the text: as §1, §2

[12] = target: adenosine receptors (rat striatal membranes, [3H]-CGS21680) (Rattus norvegicus, UniProt P30543); assay: Ki from displacement of [3H]-CGS21680 in rat striatal membranes at pH 5.5 and pH 7.4; format: binding; design: from tissue; host or cells: rat striatum (membranes); conditions: for Ki: 2 nM [3H]-CGS21680, 90 minutes at 22° C.
Sequence of adenosine receptors (rat striatal membranes, [3H]-CGS21680) (P30543 whole entry): as the sequence (P30543 whole entry) above

[13] = tested on: human macrophage cell line U937; assay: LPS induced TNF alpha release in U937 cells; format: cell-based; conditions: 100 ng/ml LPS, 3 hours
Method: Cells of human macrophage cell line U937 were grown in suspension to 500,000 cells/ml, plated out into 48 well plates, treated with 20 ng/ml PMA and incubated for 8 hours. Cells adhered to well bottoms and were washed and allowed to recover for 36 hours before use. […] After 3 hours the cell supernatants were assayed for TNF alpha using fluorescence labeled ELISA kits.

[14] = tested on: carageenan-induced inflammation; conditions: rats, 20 mg/kg po; cited from earlier work

For `COc1nc(N)c2ncn([C@@H]3O[C@H](CO)[C@@H](O)[C@H]3O)c2n1` [Compound 1, 2-methoxyadenosine], which “inhibition of carrageenan induced inflammation (paw volume)” value [1] is on record?
Its value is “inhibits carrageenan (CGN) induced inflammation with comparable efficacy to indomethacin”.

What about the “reduction in heart rate” value [2] of the same compound?
Its value is 25%.

And the “reduction in mean blood pressure” value [2]?
Its value is 41%.

And the Tachycardia side effect ([3]; single oral dose 0.2 mg)?
Its Tachycardia side effect is “No”.

And the Tachycardia side effect ([3]; single oral dose 0.8 mg)?
The Tachycardia side effect was “No”.

And the Tachycardia side effect ([3]; single oral dose 3.5 mg)?
Its Tachycardia side effect is “No”.

What about the Tachycardia side effect ([3]; single oral dose 10.5 mg) of the same compound?
The Tachycardia side effect was “No”.

And the Tachycardia side effect ([3]; single oral dose 21 mg)?
Its Tachycardia side effect is “No”.

And the Tachycardia side effect ([3]; single oral dose 28 mg)?
Its Tachycardia side effect is “Yes”.

And the EC50 (adenosine A1 receptor)?
The EC50 was 10000 nM.

And the Kd [4]?
The Kd was 340 nM.

And the “inhibition of carrageenan induced thermal hyperalgesia” value [5]?
Its value is “inhibits carrageenan (CGN) induced thermal hyperalgesia (CITH) with comparable efficacy to indomethacin”.

And the Cmax ([6]; single oral dose 0.2 mg)?
The Cmax was 10 ± 5 nM.

What about the Cmax ([6]; single oral dose 0.8 mg) of the same compound?
Its Cmax is 40 ± 20 nM.

And the Cmax ([6]; single oral dose 3.5 mg)?
Its Cmax is 130 ± 40 nM.

What about the Cmax ([6]; single oral dose 10.5 mg) of the same compound?
Its Cmax is 300 ± 40 nM.

What about the Cmax ([6]; single oral dose 21 mg) of the same compound?
The Cmax was 500 ± 100 nM.

And the Cmax ([6]; single oral dose 28 mg)?
The Cmax was 600 ± 100 nM.

What about the EC50 (adenosine receptors) of the same compound?
Its EC50 is 3030 nM and 3000 nM.

What about the EC50 (rat A2A receptor) of the same compound?
The EC50 was 3000 nM.

What about the “effect on blood pressure” value ([7]; 62.4 and 624 μg/kg i.p.) of the same compound?
Its value is “do not affect blood pressure”.

And the “effect on blood pressure” value ([7]; normal rats, 0.624 mg/kg p.o.)?
The value was “no significant effect”.

And the “effect on heart rate” value ([7]; normal rats, 0.624 mg/kg p.o.)?
Its value is “no significant effect”.

And the “inhibition of static allodynia (paw withdrawal threshold)” value ([8]; […] p.o., presence and absence of naloxone (1 mg/kg s.c.))?
The value was “inhibits static allodynia”.

What about the “inhibition of static allodynia (paw withdrawal threshold)” value ([8]; p.o., dose response) of the same compound?
The value was “inhibit static allodynia”.

And the “inhibition of thermal hyperalgesia (paw withdrawal latencies)” value [9]?
Its value is “inhibits thermal hyperalgesia”.

What about the “efficacy compared with carbamazepine” value ([9]; CBZ 100 mg/kg s.c.) of the same compound?
Its value is “as, or more, effective than carbamazepine”.

What about the EC50 (adenosine A2A receptor [10]) of the same compound?
The EC50 was 700 nM.

What about the EC50 (adenosine A2A receptor [11]) of the same compound?
Its EC50 is about 1000 nM.

What about the Ki ([12]; pH 5.5, read-out: (Ki) nM (pH 5.5)) of the same compound?
Its Ki is 1.5 nM.

And the Ki ([12]; pH 7.4, read-out: (Ki) nM (pH 7.4))?
The Ki was 1300 nM.

What about the “affinity for adenosine receptors at pH below pH 7.4” value ([12]; pH below pH 7.4 compared with pH 7.4) of the same compound?
The value was “increased affinity”.

What about the “inhibition of LPS induced TNF alpha release” value [13] of the same compound?
The value was “inhibits LPS induced TNF release”.

And the “inhibition of carageenan-induced inflammation” value [14]?
The value was 25%.
